# According to patent publication US6723735B1, “Imidazo-pyridine derivatives as ligands for GABA receptors” (Merck Sharp & Dohme Ltd., priority 1999, dated 2004):
# Where a name gives a salt, the structure may show the parent alone.
row,melting point,Compound
1,179 to 180 °C,"c1ccc(-c2cnc3c(c2)ncn3-c2cccc(-c3cccnc3)c2)cc1 [Example 5, 6-Phenyl-3-[3-(pyridin-3-yl)phenyl]-3H-imidazo[4,5-b]pyridine]"
2,191 to 192 °C,"c1cncc(-c2cccc(-n3cnc4cc(-c5ccoc5)cnc43)c2)c1 [Example 1, 6-(Furan-3-yl)-3-[3-(pyridin-3-yl)phenyl]-3H-imidazo[4,5-b]pyridine]"
3,202 to 204 °C,"c1cc(-n2ccnc2)cc(-n2cnc3cc(-c4ccoc4)cnc32)c1 (as salt: oxalate) [Example 3, 6-(Furan-3-yl)-3-[3-(imidazol-1-yl)phenyl]-3H-imidazo[4,5-b]pyridine]"
